Laboratory results from patent US20190100534A1, “Cephem Compounds with Latent Reactive Groups” (Gladius Pharmaceuticals, Inc., priority 2017, published 2019).

Legend:
KP (URMC-1) = assay: MIC determination; type: cell-based, Klebsiella pneumoniae; conditions: CAMH broth, 20 μM Apo-Transferrin, 37° C., 18 hours
Description: (§1) Sterile technique was used throughout these experiments. Suspensions of organisms were removed from storage (−80° C.) and partially thawed. Partially thawed organisms (1 μL) were inoculated into 3 mL sterile LB Broth in a sterile culture tube and capped, then cultured at 37° C. with shaking for 4-5 hours until the optical density at 600 nm (OD600) was greater than 0.1 on a single beam spectrophotometer.
(§2) The concentration of organisms was adjusted to 0.08-0.1 OD600 (0.5 McFarland units) by dilution with sterile cation-adjusted Meuller-Hinton (CAMH) broth. The suspensions were used within 30 minutes of preparation.
(§3) A stock solution was made of each test compound by measuring 6.4 mg of the compound on an analytical balance and dissolving it in DMSO (1 mL) to get a transparent solution. The solutions were stored at −20° C. and thawed prior to use.
(§4) Sterile CAMH broth (200 μL) containing 20 μM Apo-Transferrin was pipetted into the first row of 8 columns of a sterile, round-bottomed, transparent, 96-well microplate using an 8-channel pipette equipped with sterile tips. One hundred μL was pipetted into the wells of the remaining 11 rows.
(§5) With an 8-channel pipette equipped with sterile tips, 100 μL of the first row solution was transferred to the second row and mixed. The process was repeated for the second to third rows and continued through row 11. One hundred μL from row 11 was removed and discarded so that all 12 rows contained 100 μL. Row 12 contained no compound and rows 1-11 contained 64, 32, 16, 8, 4, 2, 1, 0.5, 0.25, 0.125, […] of a given compound.
(§6) Inoculant suspensions (0.5 μL) were added to the 12 wells of each column. The plates were then covered and incubated at 37° C. overnight for 18 hours.
(§7) For each organism the MIC was determined by identifying the transparent well with the lowest test compound concentration.

KP (URMC-2) = assay: MIC determination; type: cell-based, Klebsiella pneumoniae; conditions: CAMH broth, 20 μM Apo-Transferrin, 37° C., 18 hours
Description: as §1, §2, §3, §4, §5, §6, §7

KP (URMC-3) = assay: MIC determination; type: cell-based, Klebsiella pneumoniae; conditions: CAMH broth, 20 μM Apo-Transferrin, 37° C., 18 hours
Description: as §1, §2, §3, §4, §5, §6, §7

KP (RR -1) = assay: MIC determination; type: cell-based, Klebsiella pneumoniae; conditions: CAMH broth, 20 μM Apo-Transferrin, 37° C., 18 hours
Description: as §1, §2, §3, §4, §5, §6, §7

KP (ATCC KPC-3) = assay: MIC determination; type: cell-based, Klebsiella pneumoniae; conditions: CAMH broth, 20 μM Apo-Transferrin, 37° C., 18 hours
Description: as §1, §2, §3, §4, §5, §6, §7

KP(GJ 5934 TEM-26) = assay: MIC determination; type: cell-based, Klebsiella pneumoniae; conditions: CAMH broth, 20 μM Apo-Transferrin, 37° C., 18 hours
Description: as §1, §2, §3, §4, §5, §6, §7

KP(JMI KPC-2) = assay: MIC determination; type: cell-based, Klebsiella pneumoniae; conditions: CAMH broth, 20 μM Apo-Transferrin, 37° C., 18 hours
Description: as §1, §2, §3, §4, §5, §6, §7

KP (GJ 5659 TEM-26) = assay: MIC determination; type: cell-based, Klebsiella pneumoniae; conditions: CAMH broth, 20 μM Apo-Transferrin, 37° C., 18 hours
Description: as §1, §2, §3, §4, §5, §6, §7

KP(ATCC TEM-10/TEM-12) = type: cell-based, Klebsiella pneumoniae; conditions: CAMH broth, 20 μM Apo-Transferrin, 37° C., 18 hours
Description: as §1, §2, §3, §4, §5, §6, §7

[1] = tested on: Pseudomonas aeruginosa (PA); assay: MIC determination; type: cell-based; conditions: Pseudomonas aeruginosa; PA; CAMH broth, 20 μM Apo-Transferrin, 37° C., 18 hours; read-out: Minimum Inhibitory Concentrations, PA
Method in brief: (§8)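 Broth microdilution in cation-adjusted Mueller-Hinton broth with 20 μM apo-transferrin, two-fold compound series from 64 μg/mL, inoculum adjusted to 0.5 McFarland from 4-5 h LB cultures. Plates incubated 18 h at 37 °C. MIC taken as lowest concentration leaving a clear well.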

[2] = tested on: Pseudomonas aeruginosa PA-RR-(G7304100); assay: MIC determination; type: cell-based; conditions: Pseudomonas aeruginosa; PA-RR-(G7304100); CAMH broth, 20 μM Apo-Transferrin, 37° C., 18 hours; read-out: Minimum Inhibitory Concentrations, PA-RR-(G7304100)
Method in brief: as §8

[3] = tested on: Pseudomonas aeruginosa PA (URMC-2); assay: MIC determination; type: cell-based; conditions: Pseudomonas aeruginosa; PA (URMC-2); CAMH broth, 20 μM Apo-Transferrin, 37° C., 18 hours; read-out: Minimum Inhibitory Concentrations, PA (URMC-2)
Method in brief: as §8

[4] = tested on: Pseudomonas aeruginosa PA-RR-(980151052); assay: MIC determination; type: cell-based; conditions: Pseudomonas aeruginosa; PA-RR-(980151052); CAMH broth, 20 μM Apo-Transferrin, 37° C., 18 hours; read-out: Minimum Inhibitory Concentrations, PA-RR-(980151052)
Method in brief: as §8

[5] = tested on: Pseudomonas aeruginosa PA (URMC-3); assay: MIC determination; type: cell-based; conditions: Pseudomonas aeruginosa; PA (URMC-3); CAMH broth, 20 μM Apo-Transferrin, 37° C., 18 hours; read-out: Minimum Inhibitory Concentrations, PA (URMC-3)
Method in brief: as §8

[6] = tested on: Pseudomonas aeruginosa PA-RR-(G8062859); assay: MIC determination; type: cell-based; conditions: Pseudomonas aeruginosa; PA-RR-(G8062859); CAMH broth, 20 μM Apo-Transferrin, 37° C., 18 hours; read-out: Minimum Inhibitory Concentrations, PA-RR-(G8062859)
Method in brief: as §8

EA (URMC -3) = assay: MIC determination; type: cell-based; conditions: CAMH broth, 20 μM Apo-Transferrin, 37° C., 18 hours
Description: as §1, §2, §3, §4
To each well of the first row was pipetted 2.0 μL of the 6.4 mg/mL stock test compound stock solution to give 1:100 dilutions and a final concentration of 64 μg/mL and mixed.
as §5, §6, §7

EC(KB2 CTX-M-15) = assay: MIC determination; type: cell-based, Escherichia coli; conditions: Escherichia coli, CAMH broth, 20 μM Apo-Transferrin, 37° C., 18 hours, read-out: Minimum Inhibitory Concentrations, EC(KB2 CTX-M-15)
Description: as §1, §2, §3, §4, §5, §6, §7

EC(ATCC NDM-1) = assay: MIC determination; type: cell-based, Escherichia coli; conditions: Escherichia coli, CAMH broth, 20 μM Apo-Transferrin, 37° C., 18 hours, read-out: Minimum Inhibitory Concentrations, EC(ATCC NDM-1)
Description: as §1, §2, §3, §4, §5, §6, §7

EC(KB1 CTX-M-15) = assay: MIC determination; type: cell-based, Escherichia coli; conditions: Escherichia coli, CAMH broth, 20 μM Apo-Transferrin, 37° C., 18 hours, read-out: Minimum Inhibitory Concentrations, EC(KB1 CTX-M-15)
Description: as §1, §2, §3, §4, §5, §6, §7

EC (URMC-3) = assay: MIC determination; type: cell-based, Escherichia coli; conditions: Escherichia coli, CAMH broth, 20 μM Apo-Transferrin, 37° C., 18 hours, read-out: Minimum Inhibitory Concentrations, EC (URMC-3)
Description: as §1, §2, §3, §4, §5, §6, §7

EC (RR -1) = assay: MIC determination; type: cell-based, Escherichia coli; conditions: CAMH broth, 20 μM Apo-Transferrin, 37° C., 18 hours
Description: as §1, §2, §3, §4, §5, §6, §7

EC (RR -2) = assay: MIC determination; type: cell-based, Escherichia coli; conditions: CAMH broth, 20 μM Apo-Transferrin, 37° C., 18 hours
Description: as §1, §2, §3, §4, §5, §6, §7

EC(JMI OXA-48) = assay: MIC determination; type: cell-based, Escherichia coli; conditions: Escherichia coli, CAMH broth, 20 μM Apo-Transferrin, 37° C., 18 hours, read-out: Minimum Inhibitory Concentrations, EC(JMI OXA-48)
Description: as §1, §2, §3, §4, §5, §6, §7

EC (URMC-1) = assay: MIC determination; type: cell-based, Escherichia coli; conditions: Escherichia coli, CAMH broth, 20 μM Apo-Transferrin, 37° C., 18 hours, read-out: Minimum Inhibitory Concentrations, EC (URMC-1)
Description: as §1, §2, §3, §4, §5, §6, §7

EC (URMC-2) = assay: MIC determination; type: cell-based, Escherichia coli; conditions: Escherichia coli, CAMH broth, 20 μM Apo-Transferrin, 37° C., 18 hours, read-out: Minimum Inhibitory Concentrations, EC (URMC-2)
Description: as §1, §2, §3, §4, §5, §6, §7

ENA (URMC-1) = assay: MIC determination; type: cell-based, Enterobacter aerogenes; conditions: Klebsiella aerogenes, CAMH broth, 20 μM Apo-Transferrin, 37° C., 18 hours, read-out: Minimum Inhibitory Concentrations, ENA (URMC-1)
Description: as §1, §2, §3, §4, §5, §6, §7

ENA (URMC-2) = assay: MIC determination; type: cell-based, Enterobacter aerogenes; conditions: Klebsiella aerogenes, CAMH broth, 20 μM Apo-Transferrin, 37° C., 18 hours, read-out: Minimum Inhibitory Concentrations, ENA (URMC-2)
Description: as §1, §2, §3, §4, §5, §6, §7

ENC (ATCC NDM-1) = assay: MIC determination; type: cell-based, Enterobacter cloacae; conditions: CAMH broth, 20 μM Apo-Transferrin, 37° C., 18 hours
Description: as §1, §2, §3, §4, §5, §6, §7

SMILES: CC(C)(O/N=C(\C(=O)N[C@@H]1C(=O)N2C(C(=O)O)=C(C=Cc3ccc(C[N+]4(C)CCc5c(Cl)c(O)c(O)c(Cl)c5C4)cc3)CS[C@H]12)c1csc(N)n1)C(=O)O (mixture of isomers) [Compound 429, 2-(4-((E/Z)-2-((6R,7R)-7-((Z)-2-(2-aminothiazol-4-yl)-2-(((2-carboxypropan-2-yl)oxy)imino)acetamido)-2-carboxy-8-oxo-5-thia-1-azabicyclo[4.2.0]oct-2-en-3-yl)vinyl)benzyl)-5,8 dichloro-6,7-dihydroxy-2-methyl-1,2,3,4-tetrahydroisoquinolin-2-ium]
- Minimum Inhibitory Concentrations, KP (URMC-1) (KP (URMC-1)): ≤0.06 microgram/mL
- Minimum Inhibitory Concentrations, KP (URMC-2) (KP (URMC-2)): ≤0.06 microgram/mL
- Minimum Inhibitory Concentrations, KP (URMC-3) (KP (URMC-3)): ≤0.06 microgram/mL
- Mimimum Inhibitory Concentrations, KP (RR -1) (KP (RR -1)): 0.25 microgram/mL
- Minimum Inhibitory Concentrations, KP (ATCC KPC-3) (KP (ATCC KPC-3)): >64 microgram/mL
- Minimum Inhibitory Concentrations, KP(GJ 5934 TEM-26) (KP(GJ 5934 TEM-26)): 0.5 microgram/mL
- Minimum Inhibitory Concentrations, KP(JMI KPC-2) (KP(JMI KPC-2)): 16 microgram/mL
- Minimum Inhibitory Concentrations, KP (GJ 5659 TEM-26) (KP (GJ 5659 TEM-26)): 0.5 microgram/mL
- Minimum Inhibitory Concentrations, KP(ATCC TEM-10/TEM-12) (KP(ATCC TEM-10/TEM-12)): 4 microgram/mL
- MIC [1]: 0.25 µg/mL
- MIC [2]: ≤ 0.06 µg/mL
- MIC [3]: 0.5 µg/mL
- MIC [4]: 0.5 µg/mL
- MIC [5]: 0.5 µg/mL
- MIC [6]: 0.5 µg/mL
- Mimimum Inhibitory Concentrations, EA (URMC -3) (EA (URMC -3)): 2 microgram/mL
- MIC (EC(KB2 CTX-M-15)): 8 µg/mL
- MIC (EC(ATCC NDM-1)): > 64 µg/mL
- MIC (EC(KB1 CTX-M-15)): 8 µg/mL
- MIC (EC (URMC-3)): 0.5 µg/mL
- Mimimum Inhibitory Concentrations, EC (RR -1) (EC (RR -1)): ≤0.06 microgram/mL
- Mimimum Inhibitory Concentrations, EC (RR -2) (EC (RR -2)): ≤0.06 microgram/mL
- MIC (EC(JMI OXA-48)): 2 µg/mL
- MIC (EC (URMC-1)): 0.5 µg/mL
- MIC (EC (URMC-2)): 0.13 µg/mL
- MIC (ENA (URMC-1)): 2 µg/mL
- MIC (ENA (URMC-2)): 1 µg/mL
- Mimimum Inhibitory Concentrations, ENC (ATCC NDM-1) (ENC (ATCC NDM-1)): >64 microgram/mL
